# Measured values as given in ChEMBL document CHEMBL6083286, “Discovery of ERD-12310A as an Exceptionally Potent and Orally Efficacious PROTAC Degrader of Estrogen Receptor α (ERα)” (J Med Chem, 2024).
# The source made the active and inactive calls. The rule behind the calls is not given here.
# Tests used:
# [1] = Oral bioavailability in rat at 3 mg/kg measured upto 24 hrs by LC-MS/MS analysis; assay type: ADME, organism-based; settings: in vivo
# [2] = Drug concentration in SCID mouse tumor at 10 mg/kg, po administered daily for 3 days and measured after 6 hrs by LC-MS/MS analysis; assay type: ADME, organism-based, Neoplasm; settings: time 3 day, read-out: Ct
# [3] = Cmax in dog at 3 mg/kg, po or 1 mg/kg, iv measured upto 24 hrs by LC-MS/MS analysis; assay type: ADME, organism-based, Canis lupus familiaris; settings: in vivo
# [4] = Stability in rat plasma assessed as half life; assay type: ADME, cell-free
# Estrogen receptor = target: T1, Estrogen receptor (Homo sapiens, UniProt P03372); assay: Binding affinity to human ERalpha receptor assessed as inhibition constant
# T1 sequence (P03372 whole entry): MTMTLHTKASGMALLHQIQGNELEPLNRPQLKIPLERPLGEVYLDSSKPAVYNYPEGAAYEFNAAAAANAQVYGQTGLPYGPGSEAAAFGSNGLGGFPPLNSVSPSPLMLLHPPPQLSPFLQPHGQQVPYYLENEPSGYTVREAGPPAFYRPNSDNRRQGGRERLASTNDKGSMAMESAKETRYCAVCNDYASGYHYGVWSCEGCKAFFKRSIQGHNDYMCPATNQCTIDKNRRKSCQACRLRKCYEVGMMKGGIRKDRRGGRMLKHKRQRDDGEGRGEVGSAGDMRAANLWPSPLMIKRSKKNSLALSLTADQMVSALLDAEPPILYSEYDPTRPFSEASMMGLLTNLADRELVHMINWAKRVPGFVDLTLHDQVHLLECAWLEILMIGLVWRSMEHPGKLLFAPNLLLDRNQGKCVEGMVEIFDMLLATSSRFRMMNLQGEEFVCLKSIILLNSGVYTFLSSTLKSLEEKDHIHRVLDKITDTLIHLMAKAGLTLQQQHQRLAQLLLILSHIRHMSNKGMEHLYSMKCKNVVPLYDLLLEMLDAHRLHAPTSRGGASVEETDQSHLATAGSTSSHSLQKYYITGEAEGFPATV
# MCF7 [5] = assay: Antitumor activity against human MCF7 cells expressing ESR1 Y537S mutant xenografted in SCID mouse assessed as tumor growth inhibition at 10 mg/kg, po administered 5 days a week for 5 weeks; assay type: functional; settings: MCF7, 840 h, read-out: TGI
# MCF7 [6] = assay: Antitumor activity against human MCF7 cells expressing ESR1 Y537S mutant xenografted in SCID mouse assessed as tumor growth inhibition at 30 mg/kg, po administered 5 days a week for 7 weeks; assay type: functional; settings: MCF7, 1176 h, read-out: TGI
# [7] = Drug concentration in SCID mouse plasma at 10 mg/kg, po administered daily for 3 days and measured after 6 hrs by LC-MS/MS analysis; assay type: ADME, organism-based
# [8] = Metabolic stability mouse liver microsome assessed as half life; assay type: ADME; settings: microsomes
# MCF7 [9] = assay: Antitumor activity against human MCF7 cells xenografted in SCID mouse assessed as tumor growth inhibition at 10 mg/kg, po administered for 41 to 76 days; assay type: functional; settings: time 41-76 day, read-out: TGI
# Cytochrome P450 3A4 [10] = target: T2, Cytochrome P450 3A4 (Homo sapiens, UniProt P08684); assay: Inhibition of CYP3A4 in human liver microsomes using midazolam as substrate preincubated for 5 mins followed by NADPH addition and measured after 10 mins by LC-MS/MS analysis; assay type: ADME, Microsome
# T2 sequence (P08684 whole entry): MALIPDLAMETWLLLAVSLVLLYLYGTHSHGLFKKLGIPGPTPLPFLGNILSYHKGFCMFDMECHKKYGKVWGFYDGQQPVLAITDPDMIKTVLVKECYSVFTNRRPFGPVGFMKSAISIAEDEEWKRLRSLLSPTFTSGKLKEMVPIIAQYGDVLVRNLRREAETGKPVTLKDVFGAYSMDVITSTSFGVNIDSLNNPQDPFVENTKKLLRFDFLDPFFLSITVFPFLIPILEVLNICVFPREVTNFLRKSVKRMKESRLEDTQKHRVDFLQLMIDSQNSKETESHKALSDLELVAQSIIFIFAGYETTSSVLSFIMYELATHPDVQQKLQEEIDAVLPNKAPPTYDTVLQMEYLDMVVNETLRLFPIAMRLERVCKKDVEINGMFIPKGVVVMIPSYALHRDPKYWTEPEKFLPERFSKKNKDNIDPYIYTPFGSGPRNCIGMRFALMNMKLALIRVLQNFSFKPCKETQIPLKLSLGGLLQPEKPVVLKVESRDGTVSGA
# [11] = Half life in dog at 3 mg/kg, po or 1 mg/kg, iv measured upto 24 hrs by LC-MS/MS analysis; assay type: ADME, organism-based, Canis lupus familiaris; settings: in vivo
# [12] = Stability in human plasma assessed as half life; assay type: ADME, cell-free
# [13] = Cmax in rat at 3 mg/kg, po or 1 mg/kg, iv measured upto 24 hrs by LC-MS/MS analysis; assay type: ADME, organism-based; settings: in vivo
# [14] = target: T3, Protein cereblon/Estrogen receptor (Homo sapiens, UniProt P03372+Q96SW2); assay: PROTAC activity at CRBN/ERalpha in human MCF7 cells assessed as reduction in ERalpha protein level at 5 nM measured for 4 hrs in presence of MLN-4924 by Western blot analysis; assay type: cell-based
# T3 sequence (Q96SW2 whole entry, looked up, one chain of several): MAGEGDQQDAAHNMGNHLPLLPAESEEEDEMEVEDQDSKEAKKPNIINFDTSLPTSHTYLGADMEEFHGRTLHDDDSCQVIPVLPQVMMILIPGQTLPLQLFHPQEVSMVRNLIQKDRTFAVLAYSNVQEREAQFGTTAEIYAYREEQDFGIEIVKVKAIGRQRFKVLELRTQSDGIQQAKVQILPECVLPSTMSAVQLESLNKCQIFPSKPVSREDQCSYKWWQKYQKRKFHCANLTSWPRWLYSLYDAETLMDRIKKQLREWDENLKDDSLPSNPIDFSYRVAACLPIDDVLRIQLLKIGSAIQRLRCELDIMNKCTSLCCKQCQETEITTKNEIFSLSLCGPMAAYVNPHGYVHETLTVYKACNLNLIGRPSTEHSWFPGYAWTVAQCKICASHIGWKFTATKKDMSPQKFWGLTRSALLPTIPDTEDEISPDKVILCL
# [15] = Volume of distribution at steady state in dog at 3 mg/kg, po or 1 mg/kg, iv measured upto 24 hrs by LC-MS/MS analysis; assay type: ADME, organism-based, Canis lupus familiaris; settings: in vivo
# [16] = target: T3, Protein cereblon/Estrogen receptor; assay: PROTAC activity at CRBN/ERalpha in human MCF7 cells assessed as effect on GSPT1 level at 0.5 to 500 nM measured for 5 hrs by Western blot analysis; assay type: cell-based; settings: dose 0.5-500 nM
# Cytochrome P450 2C8 = target: T4, Cytochrome P450 2C8 (Homo sapiens, UniProt P10632); assay: Inhibition of CYP2C8 in human liver microsomes incubated for 5 mins in presence of NADPH by LC-MS/MS analysis; assay type: ADME, Microsome
# T4 sequence (P10632 whole entry): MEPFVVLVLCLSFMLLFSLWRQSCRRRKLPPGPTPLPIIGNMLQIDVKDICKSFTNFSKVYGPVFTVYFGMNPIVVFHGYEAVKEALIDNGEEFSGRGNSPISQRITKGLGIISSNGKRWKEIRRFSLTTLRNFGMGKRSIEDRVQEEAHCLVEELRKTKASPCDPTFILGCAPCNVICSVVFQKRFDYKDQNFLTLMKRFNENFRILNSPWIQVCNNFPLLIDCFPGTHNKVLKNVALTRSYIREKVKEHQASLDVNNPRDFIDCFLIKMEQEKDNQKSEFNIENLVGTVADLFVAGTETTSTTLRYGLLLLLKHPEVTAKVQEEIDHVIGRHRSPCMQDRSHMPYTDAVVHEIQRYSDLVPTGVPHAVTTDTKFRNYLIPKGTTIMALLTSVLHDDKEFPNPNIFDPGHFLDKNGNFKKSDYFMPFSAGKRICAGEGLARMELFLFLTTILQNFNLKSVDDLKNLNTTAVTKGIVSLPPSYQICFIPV
# [17] = target: T3, Protein cereblon/Estrogen receptor; assay: PROTAC activity at CRBN/ERalpha in human MCF7 cells assessed as reduction in ERalpha protein level at 5 nM measured for 4 hrs in presence of PR-171 by Western blot analysis; assay type: cell-based
# [18] = Toxicity in SCID mouse implanted with human MCF7 cells ESR1 Y537S mutant assessed as change in body weight at 3 to 30 mg/kg, po administered 5 days a week for 7 weeks; assay type: organism-based; settings: in vivo, 1176 h, dose 3-30 mg/kg
# [19] = target: Voltage-gated inwardly rectifying potassium channel KCNH2 (Homo sapiens, UniProt Q12809); assay: Inhibition of hERG in HEK293 cells by whole-cell patch clamp assay; assay type: toxicity, cell-based
# Sequence of Voltage-gated inwardly rectifying potassium channel KCNH2 (Q12809 whole entry): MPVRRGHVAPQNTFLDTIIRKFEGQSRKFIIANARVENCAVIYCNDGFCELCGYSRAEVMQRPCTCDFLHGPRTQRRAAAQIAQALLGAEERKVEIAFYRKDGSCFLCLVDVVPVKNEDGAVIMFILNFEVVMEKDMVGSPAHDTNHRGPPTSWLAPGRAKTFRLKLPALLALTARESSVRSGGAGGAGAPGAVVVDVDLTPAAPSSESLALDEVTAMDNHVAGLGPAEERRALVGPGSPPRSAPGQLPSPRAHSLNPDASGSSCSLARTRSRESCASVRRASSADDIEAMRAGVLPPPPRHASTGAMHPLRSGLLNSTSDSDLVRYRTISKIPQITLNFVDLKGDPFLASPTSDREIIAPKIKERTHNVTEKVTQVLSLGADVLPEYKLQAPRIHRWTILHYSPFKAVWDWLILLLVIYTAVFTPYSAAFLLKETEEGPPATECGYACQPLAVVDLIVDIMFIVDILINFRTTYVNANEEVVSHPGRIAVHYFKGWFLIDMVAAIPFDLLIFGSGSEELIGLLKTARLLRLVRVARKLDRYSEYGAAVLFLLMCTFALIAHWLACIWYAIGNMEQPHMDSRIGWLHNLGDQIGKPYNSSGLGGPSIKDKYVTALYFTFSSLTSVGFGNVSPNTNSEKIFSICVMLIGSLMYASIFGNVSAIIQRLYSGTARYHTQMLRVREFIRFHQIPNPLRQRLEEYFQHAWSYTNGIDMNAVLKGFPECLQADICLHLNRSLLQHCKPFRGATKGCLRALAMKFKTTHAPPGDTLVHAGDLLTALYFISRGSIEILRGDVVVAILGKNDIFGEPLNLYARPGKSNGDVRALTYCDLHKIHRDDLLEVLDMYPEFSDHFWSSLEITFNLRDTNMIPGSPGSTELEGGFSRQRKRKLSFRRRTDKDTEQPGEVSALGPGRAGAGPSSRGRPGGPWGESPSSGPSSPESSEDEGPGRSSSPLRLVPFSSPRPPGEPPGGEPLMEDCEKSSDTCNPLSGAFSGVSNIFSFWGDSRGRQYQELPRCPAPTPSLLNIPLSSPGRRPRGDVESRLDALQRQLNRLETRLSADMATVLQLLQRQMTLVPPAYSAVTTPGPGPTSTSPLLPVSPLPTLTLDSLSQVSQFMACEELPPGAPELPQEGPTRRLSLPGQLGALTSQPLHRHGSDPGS
# [20] = Stability in mouse plasma assessed as half life; assay type: ADME, cell-free
# [21] = Drug concentration in SCID mouse tumor at 10 mg/kg, po administered once daily measured at 24 hrs by LC-MS/MS analysis; assay type: ADME, organism-based, Neoplasm; settings: read-out: Ct
# MCF7 [22] = assay: Antitumor activity against human MCF7 cells xenografted in SCID mouse assessed as tumor growth inhibition at 3 mg/kg, po administered for 41 to 76 days; assay type: functional; settings: time 41-76 day, read-out: TGI
# [23] = Drug concentration in SCID mouse tumor at 10 mg/kg, po administered once daily for 3 days measured after 24 hrs by LC-MS/MS analysis; assay type: ADME, organism-based, Neoplasm
# [24] = Plasma protein binding in rat; assay type: ADME, cell-free
# Cytochrome P450 3A4 [25] = target: T2, Cytochrome P450 3A4; assay: Inhibition of CYP3A4 in human liver microsomes using testosterone as substrate preincubated for 5 mins followed by NADPH addition and measured after 10 mins by LC-MS/MS analysis; assay type: ADME, Microsome
structure (smiles),measurement,setting,value
O=C1CC[C@H](N2Cc3c(ccc4c3OCC43CCN(C[C@@H]4CCC5(CCN(c6ccc([C@@H]7c8ccc(O)cc8CC[C@@H]7c7ccccc7)cc6)CC5)OC4)CC3)C2=O)C(=O)N1,F,[1],10%
same,concentration at 72 h,[2],975 ng/mL
same,Cmax,[3],469.4 ng/mL
same,t1/2,[4],> 4 h
same,Ki,Estrogen receptor,0.00095 µM
same,inhibition in vivo at 10 mg/kg,MCF7 [5],75%
same,inhibition in vivo at 30 mg/kg,MCF7 [6],100%
same,concentration at 78 h,[7],380 ng/mL
same,t1/2,[8],> 1 h
same,inhibition in vivo at 10 mg/kg,MCF7 [9],94%
same,IC50,Cytochrome P450 3A4 [10],> 10 µM
same,t1/2,[11],23.2 h
same,t1/2,[12],> 4 h
same,Cmax,[13],57.7 ng/mL
same,Activity,[14],inactive
same,Vdss,[15],3.2 L/kg
same,Activity,[16],Minimal_effect
same,IC50,Cytochrome P450 2C8,> 10 µM
same,Activity,[17],inactive
same,Activity,[18],Non-toxic
same,IC50,[19],> 10 µM
same,t1/2,[20],> 4 h
same,concentration at 24 h,[21],94 ng/mL
same,inhibition in vivo at 3 mg/kg,MCF7 [22],93%
same,concentration at 96 h,[23],294 ng/mL
same,PPB,[24],95.7%
same,IC50,Cytochrome P450 3A4 [25],> 10 µM
